The test system of one test is ALOMY. Briefly: C. Herbicidal pre-emergence action, weed and crop plants (Tables C). Format: in vivo, Alopecurus myosuroides. An excerpt: (§1) Seeds of mono- and dicotyledonous weed plants and crop plants were sown, in plastic or organic planting pots, in sandy loam and covered with soil. The compounds according to the invention, formulated in the form of wettable powders (WP) or as emulsifiable concentrates (EC), were applied to the surface of the covering soil as aqueous suspension or emulsion, with the addition of 0.5% of an additive, at an application rate of 6001 of water/ha (converted). Following treatment, the pots were placed in a greenhouse and kept under optimum growth conditions for the test plants. The visual grading of the damage to the test plants was carried out after ca. 3 weeks in comparison to untreated controls (herbicidal effect in percent (%): 100% effect = plants have died off, 0% effect = as control plants). Tables C1 to C12 below show the effects of selected compounds of the general formula (I) according to table 1 on various harmful plants and an application rate corresponding to 320 g/ha or below obtained by the experimental procedure mentioned above. Table C1: pre-emergence activity at 320g/ha against KCHSC in %

Another test deals with ZEAMX. Briefly: F. Post-emergence effects on crop plants (Tables F). Format: in vivo, Zea mays. The note with it: crop plant. The essentials: (§2)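 Plants were grown in sandy loam in a greenhouse and sprayed post-emergence at the single-leaf stage, 2–3 weeks after sowing. Visual damage was scored after ca. 3 weeks against untreated controls (0% = as control, 100% = dead).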
The next test has as its system DIGSA. Briefly: B. Herbicidal post-emergence action on harmful plants (Tables B). In kind it is in vivo, Digitaria sanguinalis. The essentials: (§3)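 Activity was scored visually as % damage (100% = dead, 0% = like untreated) about 3 weeks after treatment. Plants at the one-leaf stage, 2-3 weeks old, were sprayed with WP/EC formulations plus 0.5% additive (600 L/ha water, up to 1280 g/ha). Plants were grown in sandy loam in a greenhouse.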

The subject of test [1] is POAAN. Briefly: A. Herbicidal pre-emergence action on harmful plants (Tables A). Format: in vivo, Poa annua. In a few lines: (§4)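 Greenhouse pre-emergence test: compound applied to the soil surface at 1280 g/ha or below, and herbicidal effect rated visually at ca. 3 weeks on a 0–100% scale against untreated plants.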
The subject of the next test is VIOTR. In words: C. Herbicidal pre-emergence action, weed and crop plants (Tables C). In kind it is in vivo, Viola tricolor. The essentials:
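Seeds were sown in sandy loam and covered with soil. WP or EC formulations were sprayed onto the soil surface as aqueous suspension or emulsion with 0.5% additive, at rates of 320 g/ha or below. Plants were kept in a greenhouse, and damage was scored visually after about 3 weeks as % effect versus untreated controls (100% = dead, 0% = like control).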

In a further test the test system is AMARE. Briefly: A. Herbicidal pre-emergence action on harmful plants (Tables A). In kind it is in vivo, Amaranthus retroflexus. In a few lines: as §4
A further test deals with STEME. Described as above. Conditions: visual grading after ca. 3 weeks vs untreated controls, 100% = plants have died off, 0% = as control plants. Format: in vivo, Stellaria media. In a few lines: as §4
Test [2] deals with POAAN. In words: B. Herbicidal post-emergence action on harmful plants (Tables B). Format: in vivo, Poa annua. The essentials: as §3
Test [3] concerns MATIN. In words: C. Herbicidal pre-emergence action, weed and crop plants (Tables C). In kind it is in vivo, Matricaria inodora. The note with it: application rate 320 g/ha; Table C8.
From the text: as §1

The next test relates to LOLRI. Described as above. Format: in vivo, Lolium rigidum. Conditions: application rate 320 g/ha; Table C7a.
From the text: as §1

For a further test, the system named is SETVI. In words: A. Herbicidal pre-emergence action on harmful plants (Tables A). In kind it is in vivo, Setaria viridis. Conditions: visual grading after ca. 3 weeks vs untreated controls, 100% = plants have died off, 0% = as control plants. The essentials:
as §4

In test [4] the test system is MATIN. The description is as above. Format: in vivo, Matricaria inodora. The note with it: visual grading after ca. 3 weeks vs untreated controls, 100% = plants have died off, 0% = as control plants. In a few lines: as §4
A further test has as its system ECHCG. Described as above. In kind it is in vivo, Echinochloa crus-galli. The note with it: visual grading after ca. 3 weeks vs untreated controls, 100% = plants have died off, 0% = as control plants. In a few lines: as §4
A further test has as its system GLXMA. Briefly: F. Post-emergence effects on crop plants (Tables F). Format: in vivo, Glycine max. The note with it: crop plant. The essentials:
as §2

For a further test, the system named is TRZAS. Described as above. The note with it: application rate 80 g/ha, crop plant. In kind it is in vivo, Triticum aestivum. In a few lines: as §2
[5] abbreviates: application rate 320 g/ha, Table C2a.
Setting [6] is: application rate 1280 g/ha, Table B12a.
[7] abbreviates: application rate 80 g/ha, Table A7c.
The mark [8] stands for this setting: application rate 320 g/ha, Table A7b.
[9] abbreviates: application rate 1280 g/ha, visual grading after ca. 3 weeks vs untreated controls, 100% = plants have died off, 0% = as control plants.
Where [10] appears, read: application rate 80 g/ha, Table C12b.
[11] abbreviates: application rate 320 g/ha, Table C12a.
[12] abbreviates: application rate 1280 g/ha, Table B7a.
[13] abbreviates: application rate 80 g/ha, Table C2b.
The mark [14] stands for this setting: application rate 320 g/ha, Table B7b.

Results on four compounds are retold here after patent publication EP4417602A1, “SUBSTITUTED PYRAZOLE CARBOXAMIDES, SALTS THEREOF AND THEIR USE AS HERBICIDALLY ACTIVE SUBSTANCES” (Bayer AG, priority 2023, dated 2024).

SMILES strings stand for the structures.

For the compound `C=C(c1ccccc1F)C1CCCN1C(=O)c1cn(C)nc1COC` (racemic) [Example I-023], the “pre-emergence activity against ALOMY” value in the test on ALOMY (setting [5]) worked out at 100%. The “post-emergence activity against ZEAMX in %” value with ZEAMX (application rate 80 g/ha) worked out at 0%; in the test on ZEAMX (application rate 320 g/ha), 20%. For the same compound, the “post-emergence activity against DIGSA” value with DIGSA (setting [6]) was 90%. In addition, the “pre-emergence activity against POAAN” value with POAAN [1] (setting [7]), with POAAN [1] (setting [8]) and in the test with POAAN [1] (setting [9]) was 100% in each case. For the same compound, the “pre-emergence activity against VIOTR” value in the test on VIOTR (setting [10]) and with VIOTR (setting [11]) was 80% in each case. Moreover, the “pre-emergence activity against AMARE” value with AMARE (setting [9]) was 90%. Besides, the “pre-emergence activity against STEME” value in the test with STEME (application rate 320 g/ha) and in the test on STEME (application rate 1280 g/ha) was 90% throughout. The “post-emergence activity against POAAN” value in the test with POAAN [2] (setting [12]) is 90%. The figures for the “pre-emergence activity against MATIN” value in the test on MATIN [3], in the test on MATIN [4] (application rate 320 g/ha) and in the test with MATIN [4] (application rate 1280 g/ha) were 80%, 90% and 90%, respectively. In addition, the “pre-emergence activity against LOLRI” value with LOLRI is listed as 100%. The “pre-emergence activity against SETVI” value in the test on SETVI (application rate 320 g/ha) and with SETVI (application rate 1280 g/ha) was 90% in each case. The “pre-emergence activity against ECHCG” value with ECHCG (application rate 320 g/ha) is given as 90%; with ECHCG (application rate 1280 g/ha), 100%.

For the compound `COCc1nn(C)cc1C(=O)N1CCCC1Cc1ccccc1F` (racemic) [Example I-002], the “pre-emergence activity against ALOMY” value with ALOMY (setting [5]) amounted to 90%. The “post-emergence activity against ZEAMX in %” value with ZEAMX (application rate 80 g/ha) and in the test on ZEAMX (application rate 320 g/ha) was 0% in each case. The “pre-emergence activity against POAAN” value in the test on POAAN [1] (setting [7]), in the test on POAAN [1] (setting [8]) and in the test on POAAN [1] (setting [9]) was 100% throughout. In the test with VIOTR (setting [11]), the “pre-emergence activity against VIOTR” value is reported as 80%. Also, the “pre-emergence activity against STEME” value in the test with STEME (application rate 1280 g/ha) is listed as 90%. Moreover, in the test with POAAN [2] (setting [12]), the “post-emergence activity against POAAN” value worked out at 90%. In addition, the “pre-emergence activity against MATIN” value in the test with MATIN [3] is listed as 80%; in the test with MATIN [4] (application rate 320 g/ha), 90%; in the test on MATIN [4] (application rate 1280 g/ha), 90%. Further, the “pre-emergence activity against LOLRI” value in the test with LOLRI amounted to 90%. Also, in the test with GLXMA (application rate 80 g/ha), the “post-emergence activity against GLXMA in %” value was found to be 20%. The “pre-emergence activity against SETVI” value with SETVI (application rate 320 g/ha) and with SETVI (application rate 1280 g/ha) was 90% throughout. The “pre-emergence activity against ECHCG” value was found to be 90% in the test with ECHCG (application rate 80 g/ha), 100% in the test with ECHCG (application rate 320 g/ha) and 100% in the test on ECHCG (application rate 1280 g/ha).

On to `COCc1c(C(=O)N2CCCC2Cc2ccccc2Cl)cnn1C` (racemic) [Example I-170], for which the “pre-emergence activity against ALOMY” value in the test on ALOMY (setting [13]) and with ALOMY (setting [5]) was 90% in each case. Further, the “post-emergence activity against ZEAMX in %” value in the test with ZEAMX (application rate 80 g/ha) was determined as 0%. Moreover, in the test with TRZAS, the “post-emergence activity against TRZAS in %” value amounted to 20%. The “pre-emergence activity against POAAN” value in the test on POAAN [1] (setting [7]), with POAAN [1] (setting [8]) and in the test on POAAN [1] (setting [9]) was 100% throughout. Moreover, the “post-emergence activity against POAAN” value in the test with POAAN [2] (setting [14]) and with POAAN [2] (setting [12]) was 90% each time. Also, the “pre-emergence activity against MATIN” value is on record as 80% in the test on MATIN [3] and 90% in the test on MATIN [4] (application rate 1280 g/ha). For the same compound, the “pre-emergence activity against LOLRI” value with LOLRI is listed as 90%. The “post-emergence activity against GLXMA in %” value in the test on GLXMA (application rate 80 g/ha) turned out to be 10%. Besides, the “pre-emergence activity against SETVI” value in the test on SETVI (application rate 320 g/ha) and with SETVI (application rate 1280 g/ha) was 90% each time. Further, the “pre-emergence activity against ECHCG” value in the test with ECHCG (application rate 80 g/ha), in the test with ECHCG (application rate 320 g/ha) and in the test with ECHCG (application rate 1280 g/ha) was 90% each time.

Regarding `COCc1nn(C)cc1C(=O)N1CCCC1Cc1ccccc1F` (single isomer, unassigned) [Example I-003], the results for the “pre-emergence activity against ALOMY” value in the test on ALOMY (setting [13]) and in the test on ALOMY (setting [5]) were 90% and 100%, respectively. For the same compound, the “post-emergence activity against DIGSA” value stood at 100% in the test on DIGSA (application rate 80 g/ha, Table B12c); 100% in the test on DIGSA (application rate 320 g/ha, Table B12b); 100% with DIGSA (setting [6]). Also, the “pre-emergence activity against POAAN” value in the test on POAAN [1] (setting [7]), in the test with POAAN [1] (setting [8]) and with POAAN [1] (setting [9]) was 100% each time. In addition, the “pre-emergence activity against VIOTR” value in the test with VIOTR (setting [10]) is 80%; with VIOTR (setting [11]), 90%. Besides, the “pre-emergence activity against AMARE” value was 90% in the test on AMARE (application rate 320 g/ha, Table A8b) and 90% with AMARE (setting [9]). Further, the “pre-emergence activity against STEME” value in the test with STEME (application rate 80 g/ha), in the test on STEME (application rate 320 g/ha) and with STEME (application rate 1280 g/ha) was 90% throughout. Moreover, the “post-emergence activity against POAAN” value in the test on POAAN [2] (application rate 80 g/ha, Table B7c) came to 90%; in the test on POAAN [2] (setting [14]), 90%; in the test with POAAN [2] (setting [12]), 90%. Moreover, the entries for the “pre-emergence activity against MATIN” value in the test on MATIN [3], in the test with MATIN [4] (application rate 320 g/ha) and in the test on MATIN [4] (application rate 1280 g/ha) were 80%, 90% and 90%, respectively. Besides, the “pre-emergence activity against LOLRI” value in the test on LOLRI is 90%. Moreover, the “post-emergence activity against GLXMA in %” value in the test with GLXMA (application rate 320 g/ha) was found to be 10%. The “pre-emergence activity against SETVI” value with SETVI (application rate 80 g/ha), in the test with SETVI (application rate 320 g/ha) and in the test on SETVI (application rate 1280 g/ha) was 100% throughout. Further, the “pre-emergence activity against ECHCG” value with ECHCG (application rate 80 g/ha), with ECHCG (application rate 320 g/ha) and with ECHCG (application rate 1280 g/ha) was 100% each time.
